Patent US20200397738A1, “METHODS FOR TREATING CANCER AND PROTECTING RENEWABLE TISSUES” (President and Fellows of Harvard College, priority 2018, published 2020)
Each block holds one compound with its values, some of them ahead of it.

How the values were obtained:
[1] = system: thymus, spleen and duodenum; assay: TUNEL analysis of IR- and doxorubicin-induced apoptosis in renewable tissues; format: in vivo, wild-type mice; conditions: doxorubicin 20 mg/kg alone (Compound 1 0 mg/kg)
[2] = system: thymus; assay: acute toxicity experiment, caspase-3 in thymus; conditions: 200 mg/kg, 24 hours
Method: (§2) To assess the impact of Compound 1 and preserved p53 on apoptosis, human breast cancer cells MCF-7 were treated with increasing doses (0-100 μg/ml) of Compound 1. […] The expression level of the pro-apoptotic gene p21 was used as surrogate marker to assess the activity of p53. […] C57BL/6 mice were treated with, PBS, Nutlin 3A (200 mg/kg) or Compound 1 (200 mg/kg). The mice were sacrificed 24 hours later, and caspase-3 expression was assessed in thymus, a tissue very sensitive to p53-induced apoptosis.

[3] = target: T1, MDM2/MDMX complex (Homo sapiens, UniProt O15151+Q00987); assay: cell-based mammalian two-hybrid assay
T1 construct: expressed in transfected cells
T1 sequence (Q00987 whole entry): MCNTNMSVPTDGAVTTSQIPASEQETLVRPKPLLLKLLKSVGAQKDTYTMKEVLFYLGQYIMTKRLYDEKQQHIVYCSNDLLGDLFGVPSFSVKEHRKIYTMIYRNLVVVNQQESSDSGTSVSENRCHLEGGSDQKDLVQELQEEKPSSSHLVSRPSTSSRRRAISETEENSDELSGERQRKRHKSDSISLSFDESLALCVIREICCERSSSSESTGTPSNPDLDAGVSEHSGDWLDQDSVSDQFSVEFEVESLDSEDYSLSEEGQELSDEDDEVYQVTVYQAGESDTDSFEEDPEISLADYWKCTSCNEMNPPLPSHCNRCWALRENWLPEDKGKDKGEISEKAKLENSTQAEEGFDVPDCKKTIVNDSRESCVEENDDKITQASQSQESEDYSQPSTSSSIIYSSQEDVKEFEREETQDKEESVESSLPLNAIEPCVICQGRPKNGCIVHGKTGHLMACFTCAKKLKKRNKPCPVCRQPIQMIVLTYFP
T1 sequence (O15151 whole entry): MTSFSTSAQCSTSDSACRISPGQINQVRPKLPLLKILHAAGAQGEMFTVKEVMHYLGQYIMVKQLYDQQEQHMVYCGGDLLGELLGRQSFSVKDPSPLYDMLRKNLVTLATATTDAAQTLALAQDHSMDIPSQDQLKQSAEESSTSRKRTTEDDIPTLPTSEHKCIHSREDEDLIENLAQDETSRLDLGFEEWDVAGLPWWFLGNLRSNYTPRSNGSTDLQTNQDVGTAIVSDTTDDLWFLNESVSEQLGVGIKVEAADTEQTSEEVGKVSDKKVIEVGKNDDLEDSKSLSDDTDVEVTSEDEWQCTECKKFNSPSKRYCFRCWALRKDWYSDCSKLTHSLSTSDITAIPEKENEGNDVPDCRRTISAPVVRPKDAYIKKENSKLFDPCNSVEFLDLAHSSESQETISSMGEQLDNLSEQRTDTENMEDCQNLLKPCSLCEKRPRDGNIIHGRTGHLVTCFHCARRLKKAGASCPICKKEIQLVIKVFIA

[4] = system: MCF-7 xenograft tumors; assay: growth of MCF-7 xenograft tumors; format: in vivo; conditions: 10 mg/kg IP daily, compared to vehicle-treated mice
Source text: Expression of GLUT1 and PGK1 serves as markers of aggressive biological behavior and identifies a worse prognosis in breast cancer patients.

[5] = system: MCF-7 tumor xenografts; assay: immunohistochemical analysis of MCF-7 tumor xenografts; format: in vivo; conditions: 10 mg/kg IP daily, relative to vehicle-treated mice
[6] = system: human breast cancer cells MCF-7; assay: MCF-7 cell proliferation; format: cell-based; conditions: MCF-7, 10 μM
Method: To assess the impact of Compound 1 on cell proliferation, human breast cancer cells MCF-7 were treated with 10 μM of Compound 1.

[7] = target: T2, MDM2/MDMX complex (Mus musculus, UniProt O35618+P23804); assay: immunoprecipitation with anti-Mdmx antibody and immunoblot in splenocytes; format: cell-based; conditions: splenocytes from wild-type mice, 2 or 5 μg/ml, 24 hour
T2 construct: endogenous in cells; host or cells: primary splenocytes from wild-type mice
T2 sequence (P23804 whole entry): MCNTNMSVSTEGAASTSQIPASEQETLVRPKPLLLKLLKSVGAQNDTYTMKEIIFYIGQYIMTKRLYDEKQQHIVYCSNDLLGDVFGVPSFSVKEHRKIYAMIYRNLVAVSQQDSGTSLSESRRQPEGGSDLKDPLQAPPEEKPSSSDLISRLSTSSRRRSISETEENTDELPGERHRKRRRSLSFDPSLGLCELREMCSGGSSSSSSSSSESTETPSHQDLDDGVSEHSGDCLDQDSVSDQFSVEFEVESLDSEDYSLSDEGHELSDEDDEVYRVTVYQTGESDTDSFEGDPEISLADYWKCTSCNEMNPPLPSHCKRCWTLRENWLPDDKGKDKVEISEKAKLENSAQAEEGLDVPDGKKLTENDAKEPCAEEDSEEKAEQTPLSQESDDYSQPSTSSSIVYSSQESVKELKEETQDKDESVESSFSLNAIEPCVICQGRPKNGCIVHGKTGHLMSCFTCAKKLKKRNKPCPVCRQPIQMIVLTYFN
T2 sequence (O35618 whole entry): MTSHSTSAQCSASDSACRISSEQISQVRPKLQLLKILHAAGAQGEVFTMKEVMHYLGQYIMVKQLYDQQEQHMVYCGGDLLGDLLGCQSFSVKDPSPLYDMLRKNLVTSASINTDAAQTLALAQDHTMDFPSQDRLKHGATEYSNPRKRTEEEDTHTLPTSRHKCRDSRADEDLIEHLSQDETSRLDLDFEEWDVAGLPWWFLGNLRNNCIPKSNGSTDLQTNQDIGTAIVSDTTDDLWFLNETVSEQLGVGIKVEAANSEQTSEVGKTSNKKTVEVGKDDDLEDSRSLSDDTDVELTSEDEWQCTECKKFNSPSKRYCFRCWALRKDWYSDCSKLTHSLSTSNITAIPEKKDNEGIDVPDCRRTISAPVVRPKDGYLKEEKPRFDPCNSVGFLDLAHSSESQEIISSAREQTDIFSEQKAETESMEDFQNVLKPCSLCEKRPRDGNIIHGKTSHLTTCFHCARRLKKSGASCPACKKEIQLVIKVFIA
Method: A small molecule compound, referred to herein as Compound 1 was used to dissociate and reduce the MDM2/MDMX complex, and preserve p53. […] To further verify this finding, splenocytes from wild-type mice were treated with 2 or 5 μg/ml of Compound 1, or vehicle for 24 hour.

[8] = target: MDM2/MDMX-mediated p53 ubiquitination (Homo sapiens, UniProt O15151+Q00987); assay: cell-free assay with purified proteins, p53 ubiquitination; format: biochemical
Sequence of MDM2/MDMX-mediated p53 ubiquitination (Q00987 whole entry): as the sequence (Q00987 whole entry) above
Sequence of MDM2/MDMX-mediated p53 ubiquitination (O15151 whole entry): as the sequence (O15151 whole entry) above

[9] = system: EZH2; assay: Western blot of EZH2 and H3K27me3 in thymocytes; format: cell-based, mice; conditions: thymocytes, 0.5, 1, 3 or 5 μg/ml, 12 hours
Method: (§1) Half-life of EZH2 was measured in splenocytes isolated from wildtype mouse that had been pretreated with 2 μg/ml of Compound 1 for 24 hours followed by 100 μg/ml cycloheximide (CHX). […] To further confirm the effect of Compound 1 on EZH2 and H3K27me3, thymocytes isolated from wildtype mice were treated with 0, 0.5, 1, 3 or 5 μg/ml of Compound 1 for 12 hours. […] Furthermore, to validate the effect of Compound 1 on EZH2 and H3K27me3 in renewable tissues, wildtype mice were treated with 0 or 4 mg/kg of Compound 1 for 19 hours.

[10] = system: EZH2; assay: immunostaining of EZH2 and H3K27me3 in renewable tissues; format: in vivo, mice; conditions: thymus, spleen and duodenum, 4 mg/kg, 19 hours
Method: as §1

[11] = system: HIF1; assay: RT-qPCR of ALDHA in MCF-7 cells (marker of HIF1 activity); format: cell-based, human; conditions: MCF-7, 0-100 μg/ml
Source text: The expression level of ALDHA was used as surrogate marker to assess the activity of HIF1.

[12] = system: p53; assay: RT-qPCR of CDKN1A/p21 in MCF-7 cells (marker of p53 activity); format: cell-based, human; conditions: MCF-7, 0-100 μg/ml
Method: as §2

[13] = system: EZH2; assay: half-life of EZH2 in splenocytes with cycloheximide; format: cell-based, mouse; conditions: 2 μg/ml 24 hours, then 100 μg/ml cycloheximide
Method: as §1

[14] = system: thymus, spleen and duodenum; assay: TUNEL analysis of IR- and doxorubicin-induced apoptosis in renewable tissues; format: in vivo, wild-type mice
Method: To assess the protective effects of Compound 1 on renewable tissues, wild-type mice were injected with Compound 1 at a dose of 4 mg/kg IP for 19 hours before 4 Gy ionizing radiation (IR) or exposure to doxorubicin (20 mg/kg).

[15] = system: thymocytes; assay: IR-induced killing of thymocytes, cell count; format: cell-based, mice
Method: Thymocytes isolated from wildtype mice were treated with 2 μg/ml of Compound 1 for 24 hours, in absence or presence of 2 μM GSK126, followed by 0 Gy or 5 Gy IR. Cell numbers were counted 48 hours after IR to assess the effect of Compound 1 and EZH2 inhibition on IR-induced killing.

Compound: COc1cccc2c1C(=O)c1c(O)c3c(c(O)c1C2=O)C[C@@](O)(C(=O)CO)C[C@@H]3O[C@H]1C[C@H](N)[C@H](O)[C@H](C)O1 [Doxorubicin, doxorubicin]
TUNEL apoptosis ([1]; Duodenum): 15 ± 1.1%
TUNEL apoptosis ([1]; Spleen): 22 ± 0.2%
TUNEL apoptosis ([1]; Thymus): 15 ± 0.1%

Compound: COc1ccc(C2=N[C@@H](c3ccc(Cl)cc3)[C@@H](c3ccc(Cl)cc3)N2C(=O)N2CCNC(=O)C2)c(OC(C)C)c1 [Nutlin 3A]
caspase-3 activation (apoptosis) in thymus [2]: considerable apoptosis

disassociation of the MDM2/MDMX complex [3]: dose-dependent disassociation
disassociation of the MDM2/MDMX complex [7]: disassociation
Compound: COC(=O)C1(Cc2ccc(C)c(C/C=C(/C)Cl)c2)OC(=O)C(O)C1c1ccc(O)cc1 (stereo not drawn) [Compound 1]
tumor growth [4]: significant growth delay
expression of PUMA in tumors [5]: little to no change
expression of p21 in tumors [5]: little to no change
glycolytic marker GLUT1 in tumors [5]: lower level
glycolytic marker PGK1 in tumors [5]: lower level
p53 level in tumors [5]: readily detectable levels of p53
proliferation marker Ki-67 in tumors [5]: lower level
cell proliferation [6]: considerable reduction in cell proliferation
MDM2/MDMX-mediated p53 ubiquitination and degradation [8]: blocking MDM2/MDMX-mediated p53 ubiquitination and degradation
level of EZH2 [9]: significantly induced levels
level of H3K27me3 [9]: significantly induced levels
EZH2 immunostaining [10]: induction
H3K27me3 immunostaining [10]: induction
mRNA level of ALDHA [11]: significant decrease
mRNA level of p21 [12]: little induction
half-life of EZH2 [13]: prolonged half-life
TUNEL apoptosis ([14]; Duodenum, 4 Gy IR, Compound 1 4 mg/kg IP 19 hours before): 1 ± 0.3%
TUNEL apoptosis ([14]; Duodenum, Control (no IR or doxorubicin), Compound 1 4 mg/kg IP): 0%
TUNEL apoptosis ([14]; Duodenum, doxorubicin 20 mg/kg, Compound 1 4 mg/kg IP 19 hours before): 3 ± 0.1%
TUNEL apoptosis ([14]; Spleen, 4 Gy IR, Compound 1 4 mg/kg IP 19 hours before): 7 ± 0.2%
TUNEL apoptosis ([14]; Spleen, Control (no IR or doxorubicin), Compound 1 4 mg/kg IP): 0%
TUNEL apoptosis ([14]; Spleen, doxorubicin 20 mg/kg, Compound 1 4 mg/kg IP 19 hours before): 1 ± 0.1%
TUNEL apoptosis ([14]; Thymus, 4 Gy IR, Compound 1 4 mg/kg IP 19 hours before): 22 ± 4%
TUNEL apoptosis ([14]; Thymus, Control (no IR or doxorubicin), Compound 1 4 mg/kg IP): 0%
TUNEL apoptosis ([14]; Thymus, doxorubicin 20 mg/kg, Compound 1 4 mg/kg IP 19 hours before): 1 ± 0.2%
IR-induced cell death ([15]; 2 μg/ml 24 hours, 5 Gy IR, counted 48 hours after IR): significantly attenuated

Compound: CC[C@H](C)n1cc(C)c2c(C(=O)NCc3c(C)cc(C)[nH]c3=O)cc(-c3ccc(N4CCNCC4)nc3)cc21 [GSK126, reference compound]
protective effect of Compound 1 against IR-induced cell death ([15]; 2 μM GSK126 with 2 μg/ml Compound 1, 5 Gy IR): reversed
